# Assay results published in patent publication US10168342B2, “Lipid probes and uses thereof” (THE SCRIPPS RESEARCH INSTITUTE, priority 2015, dated 2019).
# Read-outs that look alike come from different tables or passages of the source.
# Key:
# [1] = molecular target: AEA-DA lipid probe targets in Neuro2a cells (Mus musculus, UniProt O35129)
# [2] = molecular target: T1, AEA-DA lipid probe targets in Neuro2a cells (Mus musculus, UniProt P32037)
# T1 sequence (P32037 1-493): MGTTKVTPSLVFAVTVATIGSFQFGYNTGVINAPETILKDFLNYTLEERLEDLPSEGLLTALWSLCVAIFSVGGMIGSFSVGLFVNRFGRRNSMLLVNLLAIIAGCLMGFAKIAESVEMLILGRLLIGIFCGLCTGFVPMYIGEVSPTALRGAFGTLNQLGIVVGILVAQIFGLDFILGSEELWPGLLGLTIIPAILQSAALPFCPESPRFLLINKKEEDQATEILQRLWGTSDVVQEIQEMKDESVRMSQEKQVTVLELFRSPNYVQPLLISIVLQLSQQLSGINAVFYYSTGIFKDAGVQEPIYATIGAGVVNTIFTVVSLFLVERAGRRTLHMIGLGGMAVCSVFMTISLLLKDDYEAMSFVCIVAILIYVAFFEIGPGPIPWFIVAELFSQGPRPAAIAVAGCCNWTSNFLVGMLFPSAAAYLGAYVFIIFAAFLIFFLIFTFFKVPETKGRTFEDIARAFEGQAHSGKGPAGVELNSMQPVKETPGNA
# [3] = molecular target: T2, AEA-DA lipid probe targets in Neuro2a cells (Mus musculus, UniProt P43883)
# T2 sequence (P43883 1-425): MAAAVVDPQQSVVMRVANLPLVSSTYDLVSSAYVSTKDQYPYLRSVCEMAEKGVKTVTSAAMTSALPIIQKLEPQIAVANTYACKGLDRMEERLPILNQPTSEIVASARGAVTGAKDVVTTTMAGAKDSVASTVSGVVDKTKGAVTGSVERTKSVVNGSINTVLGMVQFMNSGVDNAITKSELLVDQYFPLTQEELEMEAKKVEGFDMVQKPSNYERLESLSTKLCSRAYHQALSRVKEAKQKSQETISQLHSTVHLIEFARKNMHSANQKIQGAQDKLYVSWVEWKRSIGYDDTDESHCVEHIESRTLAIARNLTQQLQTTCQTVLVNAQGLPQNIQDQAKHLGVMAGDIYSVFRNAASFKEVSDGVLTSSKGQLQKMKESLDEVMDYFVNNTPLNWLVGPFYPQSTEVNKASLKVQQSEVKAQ
# [4] = molecular target: T3, AEA-DA lipid probe targets in Neuro2a cells (Mus musculus, UniProt P52875)
# T3 sequence (P52875 34-323): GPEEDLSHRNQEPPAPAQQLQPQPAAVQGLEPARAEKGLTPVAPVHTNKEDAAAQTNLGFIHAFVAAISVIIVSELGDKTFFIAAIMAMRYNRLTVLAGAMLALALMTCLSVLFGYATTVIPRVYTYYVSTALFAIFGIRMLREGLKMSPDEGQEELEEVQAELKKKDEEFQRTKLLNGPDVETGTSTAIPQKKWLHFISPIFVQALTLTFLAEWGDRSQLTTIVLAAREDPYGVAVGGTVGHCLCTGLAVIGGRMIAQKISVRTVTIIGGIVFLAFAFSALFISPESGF
# [5] = molecular target: T4, AEA-DA lipid probe targets in Neuro2a cells (Mus musculus, UniProt Q3V009)
# T4 sequence (Q3V009 25-227): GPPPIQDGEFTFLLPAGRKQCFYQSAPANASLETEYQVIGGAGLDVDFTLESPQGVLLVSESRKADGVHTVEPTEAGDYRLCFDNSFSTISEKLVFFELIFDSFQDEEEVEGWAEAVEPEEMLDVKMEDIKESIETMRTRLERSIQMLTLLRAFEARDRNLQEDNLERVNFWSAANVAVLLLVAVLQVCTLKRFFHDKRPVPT
# [6] = molecular target: AEA-DA lipid probe targets in Neuro2a cells (Mus musculus, UniProt Q60864)
# [7] = molecular target: T5, AEA-DA lipid probe targets in Neuro2a cells (Mus musculus, UniProt Q61035)
# T5 sequence (Q61035 1-509): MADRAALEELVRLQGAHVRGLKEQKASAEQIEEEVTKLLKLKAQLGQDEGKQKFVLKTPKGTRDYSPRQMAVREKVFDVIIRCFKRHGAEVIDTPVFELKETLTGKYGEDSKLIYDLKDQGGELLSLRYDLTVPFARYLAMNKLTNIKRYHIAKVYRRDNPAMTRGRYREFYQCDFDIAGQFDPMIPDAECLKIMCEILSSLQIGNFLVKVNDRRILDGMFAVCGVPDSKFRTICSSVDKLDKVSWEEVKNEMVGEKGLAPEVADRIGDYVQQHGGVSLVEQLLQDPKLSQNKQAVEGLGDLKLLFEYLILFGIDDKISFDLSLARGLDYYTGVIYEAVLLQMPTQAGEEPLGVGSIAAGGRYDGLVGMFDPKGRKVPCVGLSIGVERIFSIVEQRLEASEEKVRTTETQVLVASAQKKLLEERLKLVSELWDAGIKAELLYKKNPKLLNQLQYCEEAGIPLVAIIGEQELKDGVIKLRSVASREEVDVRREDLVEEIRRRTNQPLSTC
# [8] = molecular target: AEA-DA lipid probe targets in Neuro2a cells (Mus musculus, UniProt Q8VDD5)
# [9] = molecular target: T6, AEA-DA lipid probe targets in Neuro2a cells (Mus musculus, UniProt Q99JH8)
# T6 sequence (Q99JH8 1-212): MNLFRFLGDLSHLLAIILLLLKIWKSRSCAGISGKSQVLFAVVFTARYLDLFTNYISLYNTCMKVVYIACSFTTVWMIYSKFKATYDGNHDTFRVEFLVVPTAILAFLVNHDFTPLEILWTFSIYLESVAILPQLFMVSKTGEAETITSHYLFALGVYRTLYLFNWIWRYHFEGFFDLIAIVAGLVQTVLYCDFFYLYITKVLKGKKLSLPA
# [10] = molecular target: AEA-DA lipid probe targets in Neuro2a cells (Mus musculus, UniProt Q9DBC7)
# Sequence of AEA-DA lipid probe targets in Neuro2a cells (Mus musculus, UniProt Q9DBC7) (Q9DBC7 whole entry): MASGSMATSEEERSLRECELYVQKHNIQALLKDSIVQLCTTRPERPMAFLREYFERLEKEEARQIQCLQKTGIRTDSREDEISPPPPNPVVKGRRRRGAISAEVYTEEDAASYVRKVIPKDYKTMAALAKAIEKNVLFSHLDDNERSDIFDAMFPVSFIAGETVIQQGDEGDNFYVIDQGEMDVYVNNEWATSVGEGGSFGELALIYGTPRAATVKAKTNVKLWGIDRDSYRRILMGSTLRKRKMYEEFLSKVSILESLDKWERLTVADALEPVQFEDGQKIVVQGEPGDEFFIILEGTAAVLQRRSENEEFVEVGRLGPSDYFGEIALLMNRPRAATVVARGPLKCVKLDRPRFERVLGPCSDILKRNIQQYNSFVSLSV
# Sequence of AEA-DA lipid probe targets in Neuro2a cells (Mus musculus, UniProt O35129) (O35129 whole entry): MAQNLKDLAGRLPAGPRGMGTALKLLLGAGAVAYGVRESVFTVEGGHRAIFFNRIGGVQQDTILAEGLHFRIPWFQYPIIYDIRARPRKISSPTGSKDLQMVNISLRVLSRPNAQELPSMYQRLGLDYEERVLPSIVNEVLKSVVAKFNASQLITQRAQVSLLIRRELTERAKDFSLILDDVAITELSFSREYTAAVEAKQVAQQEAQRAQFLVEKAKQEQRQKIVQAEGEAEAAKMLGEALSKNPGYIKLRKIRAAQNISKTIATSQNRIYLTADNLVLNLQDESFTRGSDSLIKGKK
# Sequence of AEA-DA lipid probe targets in Neuro2a cells (Mus musculus, UniProt Q8VDD5) (Q8VDD5 whole entry): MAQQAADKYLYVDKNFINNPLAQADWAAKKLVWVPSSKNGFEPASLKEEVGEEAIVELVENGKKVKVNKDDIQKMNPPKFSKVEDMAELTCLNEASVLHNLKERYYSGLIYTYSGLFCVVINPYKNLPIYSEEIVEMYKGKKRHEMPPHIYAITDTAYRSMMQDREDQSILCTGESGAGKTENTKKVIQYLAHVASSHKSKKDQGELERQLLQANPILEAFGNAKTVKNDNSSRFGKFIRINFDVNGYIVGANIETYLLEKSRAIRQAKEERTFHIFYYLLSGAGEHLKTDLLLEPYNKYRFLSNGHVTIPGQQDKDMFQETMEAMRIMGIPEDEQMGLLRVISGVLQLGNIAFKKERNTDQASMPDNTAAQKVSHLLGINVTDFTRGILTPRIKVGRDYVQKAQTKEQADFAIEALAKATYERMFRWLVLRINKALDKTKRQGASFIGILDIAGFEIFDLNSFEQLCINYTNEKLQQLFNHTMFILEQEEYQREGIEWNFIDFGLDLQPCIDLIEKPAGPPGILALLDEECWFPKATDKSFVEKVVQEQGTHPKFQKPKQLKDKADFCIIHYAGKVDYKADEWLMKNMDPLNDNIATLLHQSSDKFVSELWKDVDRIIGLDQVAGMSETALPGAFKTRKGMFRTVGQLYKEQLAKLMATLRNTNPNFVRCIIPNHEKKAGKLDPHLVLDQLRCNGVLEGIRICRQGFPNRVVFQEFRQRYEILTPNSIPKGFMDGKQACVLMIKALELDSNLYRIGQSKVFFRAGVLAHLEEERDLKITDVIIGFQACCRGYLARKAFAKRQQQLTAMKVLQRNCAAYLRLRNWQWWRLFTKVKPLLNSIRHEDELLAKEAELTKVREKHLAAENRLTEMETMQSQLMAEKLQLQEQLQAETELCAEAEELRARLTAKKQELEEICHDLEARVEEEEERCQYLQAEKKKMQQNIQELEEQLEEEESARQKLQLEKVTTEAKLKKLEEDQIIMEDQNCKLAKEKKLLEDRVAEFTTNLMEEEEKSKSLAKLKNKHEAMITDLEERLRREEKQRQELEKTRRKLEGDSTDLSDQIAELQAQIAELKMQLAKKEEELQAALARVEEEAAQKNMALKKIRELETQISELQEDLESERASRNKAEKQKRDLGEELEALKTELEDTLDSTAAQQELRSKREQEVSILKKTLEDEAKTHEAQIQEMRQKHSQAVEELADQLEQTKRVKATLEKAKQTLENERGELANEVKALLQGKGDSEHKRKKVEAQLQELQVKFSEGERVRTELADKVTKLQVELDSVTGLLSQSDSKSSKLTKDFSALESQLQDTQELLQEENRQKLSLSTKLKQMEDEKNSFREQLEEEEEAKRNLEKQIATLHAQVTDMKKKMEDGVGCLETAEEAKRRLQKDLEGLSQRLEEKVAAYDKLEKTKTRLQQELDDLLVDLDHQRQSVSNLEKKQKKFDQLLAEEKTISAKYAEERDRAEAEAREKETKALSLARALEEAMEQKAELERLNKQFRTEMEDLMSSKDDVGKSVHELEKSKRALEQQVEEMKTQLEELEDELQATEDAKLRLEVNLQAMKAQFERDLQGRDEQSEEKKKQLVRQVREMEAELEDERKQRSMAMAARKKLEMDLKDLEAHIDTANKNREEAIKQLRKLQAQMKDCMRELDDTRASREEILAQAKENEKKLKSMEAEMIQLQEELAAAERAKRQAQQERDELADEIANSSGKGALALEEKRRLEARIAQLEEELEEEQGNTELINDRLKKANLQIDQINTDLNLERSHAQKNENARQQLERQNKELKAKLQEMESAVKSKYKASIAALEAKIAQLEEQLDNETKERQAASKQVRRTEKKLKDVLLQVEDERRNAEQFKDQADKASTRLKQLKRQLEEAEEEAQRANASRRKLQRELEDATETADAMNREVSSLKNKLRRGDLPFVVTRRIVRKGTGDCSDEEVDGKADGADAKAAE
compound,measurement,setting,value
"CCCCC/C=C\C/C=C\C/C=C\C/C=C\CCCC(=O)NCCO [AEA, anandamide, reference compound]",SILAC ratio Phb2,[1]; competitor 200 μM,1.2
same,"SILAC ratio, Slc2a3",[2]; competitor 200 μM,1.0
same,"SILAC ratio, Plin2",[3]; competitor 200 μM,1.4
same,"SILAC ratio, Tmem165",[4]; competitor 200 μM,1.5
same,"SILAC ratio, Tmed1",[5]; competitor 200 μM,2.1
same,SILAC ratio Stip1,[6]; competitor 200 μM,1.3
same,SILAC ratio Hars,[7]; competitor 200 μM,1.2
same,SILAC ratio Myh9,[8]; competitor 200 μM,1.1
same,SILAC ratio Kdelr1,[9]; competitor 200 μM,1.2
same,"SILAC ratio, Prkar1a",[10]; competitor 200 μM,1.2
"O=C(/C=C/c1cccnc1)NCCCCC1CCN(C(=O)c2ccccc2)CC1 [FK-866, reference compound]",SILAC ratio Phb2,[1]; competitor 25 μM,1.1
same,"SILAC ratio, Slc2a3",[2]; competitor 25 μM,1.1
same,"SILAC ratio, Plin2",[3]; competitor 25 μM,1.0
same,"SILAC ratio, Tmem165",[4]; competitor 25 μM,1.1
same,"SILAC ratio, Tmed1",[5]; competitor 25 μM,1.3
same,SILAC ratio Stip1,[6]; competitor 25 μM,1.3
same,SILAC ratio Hars,[7]; competitor 25 μM,1.3
same,SILAC ratio Myh9,[8]; competitor 25 μM,1.2
same,SILAC ratio Kdelr1,[9]; competitor 25 μM,1.1
same,"SILAC ratio, Prkar1a",[10]; competitor 25 μM,1.5
"CN1CCN(C(=O)c2c(-c3ccccc3)c3cc([N+](=O)[O-])ccc3n2C)CC1 [KML110, (1-Methyl-5-nitro-3-phenyl-1H-indol-2-yl)(4-methylpiperazin-1-yl)methanone]",SILAC ratio Phb2,[1]; competitor 25 μM,1.3
same,"SILAC ratio, Slc2a3",[2]; competitor 25 μM,1.2
same,"SILAC ratio, Plin2",[3]; competitor 25 μM,2.7
same,"SILAC ratio, Tmem165",[4]; competitor 25 μM,1.5
same,"SILAC ratio, Tmed1",[5]; competitor 25 μM,1.6
same,SILAC ratio Stip1,[6]; competitor 25 μM,1.6
same,SILAC ratio Hars,[7]; competitor 25 μM,1.5
same,SILAC ratio Myh9,[8]; competitor 25 μM,1.7
same,SILAC ratio Kdelr1,[9]; competitor 25 μM,1.1
same,"SILAC ratio, Prkar1a",[10]; competitor 25 μM,1.6
"CN1CCN(C(=O)c2[nH]c3ccc([N+](=O)[O-])cc3c2-c2ccccc2)CC1 [MJN228, (4-Methylpiperazin-1-yl)(5-nitro-3-phenyl-1H-indol-2-yl)methanone]",SILAC ratio Phb2,[1]; competitor 10 μM,1.3
same,SILAC ratio Phb2,[1]; competitor 25 μM,1.2
same,SILAC ratio Phb2,[1]; competitor 50 μM,1.4
same,SILAC ratio Phb2,[1]; competitor 100 μM,1.5
same,"SILAC ratio, Slc2a3",[2]; competitor 10 μM,1.2
same,"SILAC ratio, Slc2a3",[2]; competitor 25 μM,1.4
same,"SILAC ratio, Slc2a3",[2]; competitor 50 μM,1.2
same,"SILAC ratio, Slc2a3",[2]; competitor 100 μM,1.2
same,"SILAC ratio, Plin2",[3]; competitor 10 μM,1.8
same,"SILAC ratio, Plin2",[3]; competitor 25 μM,3.2
same,"SILAC ratio, Plin2",[3]; competitor 50 μM,20.0
same,"SILAC ratio, Plin2",[3]; competitor 100 μM,20.0
same,"SILAC ratio, Tmem165",[4]; competitor 10 μM,1.0
same,"SILAC ratio, Tmem165",[4]; competitor 25 μM,1.2
same,"SILAC ratio, Tmem165",[4]; competitor 100 μM,1.5
same,"SILAC ratio, Tmed1",[5]; competitor 10 μM,1.1
same,"SILAC ratio, Tmed1",[5]; competitor 25 μM,1.6
same,"SILAC ratio, Tmed1",[5]; competitor 50 μM,2.1
same,"SILAC ratio, Tmed1",[5]; competitor 100 μM,2.2
same,SILAC ratio Stip1,[6]; competitor 10 μM,1.2
same,SILAC ratio Stip1,[6]; competitor 25 μM,1.3
same,SILAC ratio Stip1,[6]; competitor 50 μM,1.2
same,SILAC ratio Stip1,[6]; competitor 100 μM,1.9
same,SILAC ratio Hars,[7]; competitor 10 μM,1.6
same,SILAC ratio Hars,[7]; competitor 25 μM,1.5
same,SILAC ratio Hars,[7]; competitor 50 μM,1.0
same,SILAC ratio Hars,[7]; competitor 100 μM,1.4
same,SILAC ratio Myh9,[8]; competitor 10 μM,1.2
same,SILAC ratio Myh9,[8]; competitor 25 μM,1.3
same,SILAC ratio Myh9,[8]; competitor 50 μM,1.2
same,SILAC ratio Myh9,[8]; competitor 100 μM,1.6
same,SILAC ratio Kdelr1,[9]; competitor 10 μM,1.1
same,SILAC ratio Kdelr1,[9]; competitor 25 μM,1.2
same,SILAC ratio Kdelr1,[9]; competitor 50 μM,1.5
same,SILAC ratio Kdelr1,[9]; competitor 100 μM,1.5
same,"SILAC ratio, Prkar1a",[10]; competitor 10 μM,1.9
same,"SILAC ratio, Prkar1a",[10]; competitor 25 μM,1.9
same,"SILAC ratio, Prkar1a",[10]; competitor 50 μM,2.1
same,"SILAC ratio, Prkar1a",[10]; competitor 100 μM,2.8
"C=CCN(C)CCCCCCOc1ccc(C(=O)c2ccc(Br)cc2)c(F)c1 [Ro 48-8071, reference compound]",SILAC ratio Phb2,[1]; competitor 25 μM,0.9
same,"SILAC ratio, Slc2a3",[2]; competitor 25 μM,1.0
same,"SILAC ratio, Plin2",[3]; competitor 25 μM,1.8
same,"SILAC ratio, Tmem165",[4]; competitor 25 μM,1.1
same,"SILAC ratio, Tmed1",[5]; competitor 25 μM,1.2
same,SILAC ratio Stip1,[6]; competitor 25 μM,1.0
same,SILAC ratio Hars,[7]; competitor 25 μM,0.9
same,SILAC ratio Myh9,[8]; competitor 25 μM,1.0
same,SILAC ratio Kdelr1,[9]; competitor 25 μM,1.0
same,"SILAC ratio, Prkar1a",[10]; competitor 25 μM,1.0
